Source: PubChem BioAssay AID1259411 (Chemical Carcinogenesis Research Information System (CCRIS), 2018)
Calls of active or inactive are those of the source. How the calls were made is not given here.

System: rodent carcinogenicity bioassays, tumor incidence
Assay: CCRIS carcinogenicity studies
How it was run: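 NCI-built, expert-reviewed records of carcinogenicity and related test outcomes (mutagenicity, tumor promotion/inhibition) compiled from published and report sources, historical span 1985-2011, not updated.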

`c1ccc(Nc2ccc3ccccc3c2)cc1` was tested, and the carcinogen call (Species: MOUSE, Strain/Sex: B6C3F1/FEMALE, Route: ORAL, Dose: 0, 2500, 5000 PPM IN DIET FOR 103 WK (STUDY DURATION: 104 WK), Dose: 0, 2500, 5000 PPM IN DIET FOR 103 WK (STUDY DURATION: 104 WK), Tumor Site: Type of Lesion: KIDNEY: RENAL TUBULAR CELL ADENOMA, RENAL TUBULAR CELL ADENOCARCINOMA) was “equivocal”, the carcinogen call (Species: MOUSE, Strain/Sex: B6C3F1/MALE, Route: ORAL, Dose: 0, 2500, 5000 PPM IN DIET FOR 103 WK (STUDY DURATION: 104 WK), Dose: 0, 2500, 5000 PPM IN DIET FOR 103 WK (STUDY DURATION: 104 WK)) was “inactive; negative” and the carcinogen call (Species: RAT, Strain/Sex: F344/FEMALE, Route: ORAL, Dose: 0, 2500, 5000 PPM IN DIET FOR 103 WK (STUDY DURATION: 104 WK), Dose: 0, 2500, 5000 PPM IN DIET FOR 103 WK (STUDY DURATION: 104 WK)) was “inactive; negative”. For the same molecule, the carcinogen call (Species: RAT, Strain/Sex: F344/MALE, Route: ORAL, Dose: 0, 2500, 5000 PPM IN DIET FOR 103 WK (STUDY DURATION: 104 WK), Dose: 0, 2500, 5000 PPM IN DIET FOR 103 WK (STUDY DURATION: 104 WK)) was “inactive; negative”, the carcinogen call (Species: RAT, Strain/Sex: SPRAGUE-DAWLEY/FEMALE, Route: GAVAGE, Dose: 0, 600 MG/KG BW 2/WK FOR DURATION OF STUDY (STUDY DURATION: LIFETIME)) was “inactive; negative” and the carcinogen call (Species: RAT, Strain/Sex: SPRAGUE-DAWLEY/MALE, Route: GAVAGE, Dose: 0, 600 MG/KG BW 2/WK FOR DURATION OF STUDY (STUDY DURATION: LIFETIME)) was “inactive; negative”.

With `CN(C)C(=O)Cl` the carcinogen call (Species: MOUSE, Route: DERMAL, Tumor Site: Type of Lesion: INTEGUMENTARY SYSTEM (SKIN)) was “active; positive” and the carcinogen call (Species: MOUSE, Route: INTRAPERITONEAL, SUBCUTANEOUS, Tumor Site: Type of Lesion: INJECTION SITE) was “active; positive”.

For `C[C@H]1CCCC(=O)CCC/C=C/c2cc(O)cc(O)c2C(=O)O1`, the carcinogen call (Species: MOUSE, Strain/Sex: B6C3F1/FEMALE, Route: ORAL, Dose: 0, 50, 100 PPM IN DIET, Dose: 0, 50, 100 PPM IN DIET, Tumor Site: Type of Lesion: LIVER: HEPATOCELLULAR ADENOMA, CARCINOMA, PITUITARY GLAND: ADENOMA, CARCINOMA) was “active; positive”, the carcinogen call (Species: MOUSE, Strain/Sex: B6C3F1/MALE, Route: ORAL, Dose: 0, 50, 100 PPM IN DIET, Dose: 0, 50, 100 PPM IN DIET, Tumor Site: Type of Lesion: PITUITARY GLAND: ADENOMA, CARCINOMA) was “active; positive” and the carcinogen call (Species: RAT, Strain/Sex: F344/FEMALE, Route: ORAL, Dose: 0, 25, 50 PPM IN DIET, Dose: 0, 25, 50 PPM IN DIET) was “inactive; negative”. The carcinogen call (Species: RAT, Strain/Sex: F344/MALE, Route: ORAL, Dose: 0, 25, 50 PPM IN DIET, Dose: 0, 25, 50 PPM IN DIET) was “inactive; negative”.

In the case of `CC(C)NC(=O)N1CC(=O)N(c2cc(Cl)cc(Cl)c2)C1=O`, the carcinogen call (Species: Mouse, Strain/Sex: CD-1/Female (50/Group), Route: Oral, Dose: 0, 160, 800, 4000 ppm of 95.7% iprodione in diet for 99 wk, study duration 99 wk, Dose: 0, 160, 800, 4000 ppm of 95.7% iprodione in diet for 99 wk, study duration 99 wk, Tumor Site: Type of Lesion: Liver: hepatocellular adenoma and carcinoma in high dose mice) is reported as “active; positive”, the carcinogen call (Species: Mouse, Strain/Sex: CD-1/Male (50/Group), Route: Oral, Dose: 0, 160, 800, 4000 ppm of 95.7% iprodione in diet for 99 wk, study duration 99 wk, Dose: 0, 160, 800, 4000 ppm of 95.7% iprodione in diet for 99 wk, study duration 99 wk, Tumor Site: Type of Lesion: Liver: hepatocellular adenoma and carcinoma in high dose mice) is reported as “active; positive” and the carcinogen call (Species: Rat, Strain/Sex: Sprague-Dawley/Female (60/Group), Route: Oral, Dose: 0, 8.4, 16.5, 95 mg/kg/day of 94.5-95.7% iprodione in diet for 104 wk, study duration 104 wk, Dose: 0, 8.4, 16.5, 95 mg/kg/day of 94.5-95.7% iprodione in diet for 104 wk, study duration 104 wk) is reported as “inactive; negative”. For the same molecule, the carcinogen call (Species: Rat, Strain/Sex: Sprague-Dawley/Male (60/Group), Route: Oral, Dose: 0, 6.1, 12.4, 69 mg/kg/day of 94.5-95.7% iprodione in diet for 104 wk, study duration 104 wk, Dose: 0, 6.1, 12.4, 69 mg/kg/day of 94.5-95.7% iprodione in diet for 104 wk, study duration 104 wk, Tumor Site: Type of Lesion: Testes: Interstitial cell adenoma (high dose only)) was “active; positive”.

In the case of `CCN(CC)c1ccc(C(=C2C=CC(=[N+](CC)CC)C=C2)c2ccc(S(=O)(=O)O)cc2S(=O)(=O)[O-])cc1`, the carcinogen call (Species: RAT, Route: SUBCUTANEOUS, INTRAMUSCULAR, Tumor Site: Type of Lesion: INJECTION SITE) is reported as “active; positive”.

With `Fc1cccc2ncccc12` the carcinogen call (Species: MOUSE, Strain/Sex: CD-1/FEMALE, Route: INTRAPERITONEAL, Dose: 0, 1.75 UMOL/MOUSE (TOTAL DOSE) ADMINISTERED DURING DAYS 1, 8, AND 15 OF LIFE (STUDY DURATION: 52 WK)) was “inactive; negative” and the carcinogen call (Species: MOUSE, Strain/Sex: CD-1/MALE, Route: INTRAPERITONEAL, Dose: 0, 1.75 UMOL/MOUSE (TOTAL DOSE) ADMINISTERED DURING DAYS 1, 8, AND 15 OF LIFE (STUDY DURATION: 52 WK), Tumor Site: Type of Lesion: LIVER: CARCINOMA) was “active; positive”.

With `O=c1c(O[C@@H]2O[C@H]([C@H](O)CO)[C@H](O)[C@H]2O)c(-c2ccc(O)c(O)c2)oc2cc(O)cc(O)c12` the carcinogen call (Species: RAT, Strain/Sex: F344 DUCRJ/FEMALE (50/GROUP), Route: ORAL, DIET, Dose: 119.2, 352.8 MG/KG DAILY FOR 104 WK (STUDY DURATION: 104 WK), TEST MATERIAL WAS ENZYMATICALLY MODIFIED, Dose: 119.2, 352.8 MG/KG DAILY FOR 104 WK (STUDY DURATION: 104 WK), TEST MATERIAL WAS ENZYMATICALLY MODIFIED, Tumor Site: Type of Lesion: NONE) was “inactive; negative” and the carcinogen call (Species: RAT, Strain/Sex: F344 DUCRJ/MALE (50/GROUP), Route: ORAL, DIET, Dose: 142.5, 431.1 MG/KG DAILY FOR 104 WK (STUDY DURATION: 104 WK), TEST MATERIAL WAS ENZYMATICALLY MODIFIED, Dose: 142.5, 431.1 MG/KG DAILY FOR 104 WK (STUDY DURATION: 104 WK), TEST MATERIAL WAS ENZYMATICALLY MODIFIED, Tumor Site: Type of Lesion: NONE) was “inactive; negative”.

In the case of `O=C(O)[C@@H]1[C@H](C(=O)O)[C@H]2CC[C@@H]1O2`, the carcinogen call (Species: Mouse, Strain/Sex: Crl, CD-1(ICR)BR/Male and female (60/Group), Route: Oral, Dose: 0, 750, 1500 ppm of endothal disodium, purity 19-23.1%, in diet for at least 78 wk, study duration 18 mo, Dose: 0, 750, 1500 ppm of endothal disodium, purity 19-23.1%, in diet for at least 78 wk, study duration 18 mo, Tumor Site: Type of Lesion: Duodenum and jejunum: increased incidence of tumors in high dose group) is reported as “active; positive (results not described separately for each sex)”, the carcinogen call (Species: Rat, Strain/Sex: Cr, CD(SD)BR/Female (62/group), Route: Oral, Dose: Nominal concentrations of 0, 300, 900, 1800 ppm in diet for 104 wk, study duration 104 wk (actual concentration about 18, 300, 900, Tumor Site: Type of Lesion: Uterus: endometrial stromal tumors (0, 0, 4/60, 5/59)) is reported as “active; positive (ca department of pesticide regulation evaluator described as a possibl” and the carcinogen call (Species: Rat, Strain/Sex: Cr, CD(SD)BR/Male (62/group), Route: Oral, Dose: Nominal concentrations of 0, 300, 900, 1800 ppm in diet for 104 wk, study duration 104 wk (actual concentration about 18, 300, 900) is reported as “inactive; negative”.

`O=[N+]([O-])c1ccc2ccc3ccc([N+](=O)[O-])c4ccc1c2c34` was tested, and the carcinogen call (Species: RAT, Strain/Sex: F344/MALE, Route: SUBCUTANEOUS, Dose: 0, 0.002, 0.02 MG 2/WK FOR 10 WK (STUDY DURATION: 320 D), Dose: 0, 0.002, 0.02 MG 2/WK FOR 10 WK (STUDY DURATION: 320 D), Tumor Site: Type of Lesion: INJECTION SITE: SARCOMA) was “active; positive”, the carcinogen call (Species: RAT, Strain/Sex: STRAIN CD/FEMALE, Route: INTRAGASTRIC, Dose: 0, 10 UMOL IN DMSO 3/WK FOR 4 WK (TOTAL DOSE: 16 UMOL/RAT) (STUDY DURATION: 78 WK), Tumor Site: Type of Lesion: ADRENAL GLAND: PHEOCHROMOCYTOMA, CORTICAL ADENOMA, PITUITARY GLAND: CARCINOMA, LIVER: HYPERPLASTIC NODULES, Tumor Site: Type of Lesion: ADRENAL GLAND: PHEOCHROMOCYTOMA, CORTICAL ADENOMA, PITUITARY GLAND: CARCINOMA, LIVER: HYPERPLASTIC NODULES) was “active; positive” and the carcinogen call (Species: RAT, Strain/Sex: STRAIN CD/FEMALE, Route: INTRAGASTRIC, Dose: 0, 10 UMOL IN DMSO 3/WK FOR 4 WK (TOTAL DOSE: 16 UMOL/RAT) (STUDY DURATION: 78 WK), Tumor Site: Type of Lesion: MAMMARY GLAND: ADENOCARCINOMA, FIBROADENOMA) was “active; positive”. The carcinogen call (Species: RAT, Strain/Sex: STRAIN CD/FEMALE, Route: INTRAPERITONEAL, Dose: 0, 10 UMOL IN DMSO 3/WK FOR 4 WK (TOTAL DOSE: 16 UMOL/RAT) (STUDY DURATION: 78 WK), Tumor Site: Type of Lesion: HEMATOPOIETIC SYSTEM: HISTIOCYTOMA, LEUKEMIA) was “active; positive”, the carcinogen call (Species: RAT, Strain/Sex: STRAIN CD/FEMALE, Route: INTRAPERITONEAL, Dose: 0, 10 UMOL IN DMSO 3/WK FOR 4 WK (TOTAL DOSE: 16 UMOL/RAT) (STUDY DURATION: 78 WK), Tumor Site: Type of Lesion: MAMMARY GLAND: ADENOCARCINOMA) was “active; positive” and the carcinogen call (Species: RAT, Strain/Sex: STRAIN-CD/FEMALE, Route: SUBCUTANEOUS, Dose: 0, 6.3 UMOL (TOTAL DOSE) ADMINISTERED OVER 8 WK BEGINNING ON DAY OF BIRTH (STUDY DURATION: 67 WK), Tumor Site: Type of Lesion: INTEGUMENTARY SYSTEM: MALIGNANT FIBROUS HISTIOCYTOMA, HEMATOPOIETIC SYSTEM: LEUKEMIA) was “active; positive”.
